Test results from patent US20220088195A1, “Prevention or mitigation of T-cell bispecific antibody-related adverse effects” (Hoffmann-La Roche Inc., priority 2020, published 2022).

System: IFN-γ, TNF-α and IL-2 release
Assay: Cytokine release in SKM-1 killing assay with HLA-A2 WT-1-TCB, dasatinib added after 24 hours (Luminex)
Type: cell-based, human
Conditions: 48 hours; 100 nM dasatinib added at 24 hours
Procedure: FIG. 3. In vitro killing assay set-up and timelines. PBMCs were co-cultured with SKM-1 target cells (E:T=10:1) and 10 nM HLA-A2 WT-1-TCB. Dasatinib (100 nM) was added after 24 hours of activation. PBMCs were labelled with CellTrace™ Violet (CTV) to allow T cell proliferation assessment.
FIG. 5. Cytokine release. Supernatants were collected from the assay of FIG. 3 at 24h and 48h, and cytokines (IFN-γ (A), TNF-α (B) and IL-2 (C)) measured using a multiplex kit (Luminex). Mean+/−SD of 3 donors.
To evaluate if dasatinib could act as a rapid and potent inhibitor of activated T cells, we first stimulated PBMCs on SKM-1 tumor cells with HLA-A2 WT-1-TCB for 24 hours. We then supplemented these activated effector cells with 100 nM dasatinib (FIG. 3).

SMILES: Cc1nc(Nc2ncc(C(=O)Nc3c(C)cccc3Cl)s2)cc(N2CCN(CCO)CC2)n1 [dasatinib, N-(2-chloro-6-methylphenyl)-2-[[6-[4-(2-hydroxyethyl)-1-piperazinyl]-2-methyl-4-pyrimidinyl]amino]-5-thiazole carboxamide monohydrate]
- release of IFN-γ, TNF-α and IL-2 from activated T cells: rapidly prevented the release of cytokines
